Experimental data reported in ChEMBL document CHEMBL1201862, “PubChem BioAssay data set” (2004).
Activity calls are given as the source filed them.

Tests used:
[1] = biological target: T1, Protein skinhead-1 (Caenorhabditis elegans, UniProt P34707); assay type: functional
T1 sequence (P34707 whole entry): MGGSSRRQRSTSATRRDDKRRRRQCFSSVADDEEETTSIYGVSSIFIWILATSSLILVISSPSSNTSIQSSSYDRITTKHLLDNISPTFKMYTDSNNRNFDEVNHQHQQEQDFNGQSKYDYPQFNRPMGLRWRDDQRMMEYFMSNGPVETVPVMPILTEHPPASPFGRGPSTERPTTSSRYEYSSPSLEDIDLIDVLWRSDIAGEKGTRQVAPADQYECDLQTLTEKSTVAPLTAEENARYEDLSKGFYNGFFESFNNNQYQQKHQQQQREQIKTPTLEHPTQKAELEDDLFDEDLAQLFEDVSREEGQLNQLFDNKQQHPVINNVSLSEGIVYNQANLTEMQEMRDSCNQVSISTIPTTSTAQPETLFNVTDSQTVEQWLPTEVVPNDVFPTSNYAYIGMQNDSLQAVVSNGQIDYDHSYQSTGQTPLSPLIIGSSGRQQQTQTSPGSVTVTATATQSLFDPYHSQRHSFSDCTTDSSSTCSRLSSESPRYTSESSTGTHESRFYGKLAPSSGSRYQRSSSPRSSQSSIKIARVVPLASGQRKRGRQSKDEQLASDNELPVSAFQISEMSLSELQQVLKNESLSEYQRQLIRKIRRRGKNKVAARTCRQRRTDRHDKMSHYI

[2] = NIH-3T3 fibroblast cytotoxicity, dose response, cytotoxicity control, cell-based, fluorescence, Alamar Blue, secondary assay (AID 2327); assay type: functional;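 note: NIH-3T3 mouse fibroblasts cultured with fluconazole at 8 µg/mL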
[3] = fluconazole-exposed Candida albicans growth modulators – fluorescence, retest, confirmation (AID 2467); assay type: functional, cell-based
[4] = viability of uninfected HEp-2 cells – cell-based, HTS, cytotoxicity control for RSV inhibitor project, dose response (AID 2410); assay type: functional; conditions: human respiratory syncytial virus
[5] = Luminescence Cell-Based Dose Retest to Confirm Inhibitors of Cancer Stem Cells. [Related pubchem assays (depositor defined):AID2717, AID2721]; assay type: functional; conditions: Homo sapiens
[6] = biological target: T2, Ubiquitin-conjugating enzyme E2 N (Homo sapiens, UniProt P61088); assay type: functional;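 note: Dose-response confirmation in a TR-FRET assay detecting UBC13-driven polyubiquitin chain formation, inhibition measured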
T2 sequence (P61088 whole entry): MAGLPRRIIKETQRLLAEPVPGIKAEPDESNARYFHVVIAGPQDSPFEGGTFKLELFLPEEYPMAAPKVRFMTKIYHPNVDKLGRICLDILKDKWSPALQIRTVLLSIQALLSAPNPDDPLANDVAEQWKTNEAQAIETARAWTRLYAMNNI

[7] = biological target: T3, Heat shock factor protein 1 (Mus musculus, UniProt P38532); assay: decrease of HSF1-responsive luciferase luminescence – cell-based, NIH3T3, dose retest, confirmation (AID 2382); assay type: functional;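 note: NIH3T3 fibroblasts with HSF1-driven luciferase reporter stressed by proteasome inhibitor MG132; luminescence from HSF1-driven luciferase expression after 8 hours of MG132 stress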
T3 sequence (P38532 whole entry): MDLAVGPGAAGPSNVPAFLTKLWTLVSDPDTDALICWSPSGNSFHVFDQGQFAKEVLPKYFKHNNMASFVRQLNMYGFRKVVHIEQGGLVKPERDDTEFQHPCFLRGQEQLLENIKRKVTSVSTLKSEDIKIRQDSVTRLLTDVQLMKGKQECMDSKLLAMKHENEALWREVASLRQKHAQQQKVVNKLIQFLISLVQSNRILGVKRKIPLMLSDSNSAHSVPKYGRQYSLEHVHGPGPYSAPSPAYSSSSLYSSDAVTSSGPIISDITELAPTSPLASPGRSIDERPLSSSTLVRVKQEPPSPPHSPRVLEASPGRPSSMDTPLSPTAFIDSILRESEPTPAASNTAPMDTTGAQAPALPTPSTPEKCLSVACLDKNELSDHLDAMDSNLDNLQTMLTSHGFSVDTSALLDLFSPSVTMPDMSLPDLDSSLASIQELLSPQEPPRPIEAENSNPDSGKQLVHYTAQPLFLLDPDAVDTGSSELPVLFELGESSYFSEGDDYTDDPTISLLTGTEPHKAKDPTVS

[8] = biological target: T3, Heat shock factor protein 1; assay: enhancement of HSF1-driven luciferase signal – cell-based, NIH3T3, luminescence, dose retest, confirmation (AID 435004); assay type: functional;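 note: stress induced by proteasome inhibitor MG132 added 30 min after compound; luciferase reporter driven by HSF1 response element in NIH3T3 cells; actives raise luminescence as potentiators of the MG132 stress response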
[9] = test system: H4; assay: Luminescence Cell-Based Dose Response HTS to Identify Activators of 5'UTR Stem-Loop Driven Prion Protein mRNA Translation in H4 Neuroglioblastoma Cells. [Related pubchem assays: 1829 (Project Summary), 1814 (Primary HTS)]; assay type: functional; conditions: Homo sapiens
[10] = Trypanosoma cruzi growth suppression in host cells – NIH3T3 host cells, beta-gal luminescence, confirmation (AID 2044); assay type: functional, cell-based;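 note: intracellular parasites grown in NIH/3T3 mouse fibroblasts as host cells; luminescent beta-galactosidase reporter signal from transgenic T. cruzi replicating inside host cells; inhibitors lower the luminescence signal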
[11] = microbe, parasite or virus in culture; assay type: functional; conditions: Mycobacterium tuberculosis
[12] = biological target: FAD-linked sulfhydryl oxidase ALR (Homo sapiens, UniProt P55789); assay: ALR-catalysed DTT oxidation blockers – biochemical, H2O2 detection, luminescence, cherry-pick, dose response (AID 493248)
Sequence of FAD-linked sulfhydryl oxidase ALR (P55789 whole entry): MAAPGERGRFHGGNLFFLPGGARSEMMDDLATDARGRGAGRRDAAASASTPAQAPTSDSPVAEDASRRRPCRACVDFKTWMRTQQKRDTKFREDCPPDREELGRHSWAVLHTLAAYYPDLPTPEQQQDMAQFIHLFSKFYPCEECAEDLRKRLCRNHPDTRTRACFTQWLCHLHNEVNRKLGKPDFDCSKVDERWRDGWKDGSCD

[13] = Luminescence Cell-Based Dose Response HTS to Identify Inhibitors of 5'UTR Stem-Loop Driven Prion Protein mRNA Translation in H4 Neuroglioblastoma Cells. [Related pubchem assays: 1827 (Project Summary), 1813 (Primary HTS)]; assay type: functional
[14] = luciferase reporter signal suppression in cells – H4 neuroglioma cells, luminescence, dose response (AID 1990); assay type: functional, cell-based
[15] = test system: Streptococcus; assay: GAS UMAA2166 growth inhibition – luminescence, BacTiterGlo, counter-screen for streptokinase expression inhibitor project, dose response (AID 1915); assay type: functional, organism-based;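 note: potency for reduction of bacterial viability or growth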
[16] = alpha-synuclein stem-loop luciferase translation blockers – H4 neuroglioma cells, luminescence, confirmation (AID 1988); assay type: functional, cell-based
[17] = NIH3T3 cell viability loss – ATP luminescence, mouse fibroblasts, counter-screen, dose response (AID 2010); assay type: functional, cell-based;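 note: cells exposed to compound for about 90 hours before reading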
[18] = test system: INS1; assay: INS-1E survival protection against cytokine death – cell-based, luminescence, retest, dose response (AID 449756); assay type: functional; conditions: Rattus norvegicus;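 note: cell death triggered by IL-1 beta plus TNF-alpha plus IFN-gamma mixture; protective hits raise ATP signal compared with cytokine alone wells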
[19] = test system: Streptococcus sp. 'group A'; assay: Streptococcus pyogenes SK(-)GAS viability under kanamycin – luminescence, BacTiterGlo, confirmation, counter-screen for streptokinase expression inhibitor project, dose response (AID 1900); assay type: functional, organism-based
[20] = biological target: Cytochrome P450 2C19 (Homo sapiens, UniProt P33261); assay: Cytochrome panel assay with activity outcomes. Panel member name: p450-cyp2c19 Compounds with AC50 equal or less than 10 uM are considered active; assay type: functional; conditions: read-out: AC50
Sequence of Cytochrome P450 2C19 (P33261 whole entry): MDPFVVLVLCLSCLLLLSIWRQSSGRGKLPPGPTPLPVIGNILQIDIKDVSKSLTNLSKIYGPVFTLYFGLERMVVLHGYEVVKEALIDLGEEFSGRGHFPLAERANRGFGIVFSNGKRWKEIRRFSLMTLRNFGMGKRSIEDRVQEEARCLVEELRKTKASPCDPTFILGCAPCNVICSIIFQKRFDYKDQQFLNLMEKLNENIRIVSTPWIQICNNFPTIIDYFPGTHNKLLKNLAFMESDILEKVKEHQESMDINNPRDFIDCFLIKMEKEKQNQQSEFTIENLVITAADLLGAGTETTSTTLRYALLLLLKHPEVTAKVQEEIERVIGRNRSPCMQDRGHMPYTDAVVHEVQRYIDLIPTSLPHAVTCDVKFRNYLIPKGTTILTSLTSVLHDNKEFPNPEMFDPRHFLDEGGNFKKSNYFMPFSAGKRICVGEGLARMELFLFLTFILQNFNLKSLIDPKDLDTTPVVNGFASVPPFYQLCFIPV

[21] = biological target: Cytochrome P450 2C9 (Homo sapiens, UniProt P11712)
Sequence of Cytochrome P450 2C9 (P11712 whole entry): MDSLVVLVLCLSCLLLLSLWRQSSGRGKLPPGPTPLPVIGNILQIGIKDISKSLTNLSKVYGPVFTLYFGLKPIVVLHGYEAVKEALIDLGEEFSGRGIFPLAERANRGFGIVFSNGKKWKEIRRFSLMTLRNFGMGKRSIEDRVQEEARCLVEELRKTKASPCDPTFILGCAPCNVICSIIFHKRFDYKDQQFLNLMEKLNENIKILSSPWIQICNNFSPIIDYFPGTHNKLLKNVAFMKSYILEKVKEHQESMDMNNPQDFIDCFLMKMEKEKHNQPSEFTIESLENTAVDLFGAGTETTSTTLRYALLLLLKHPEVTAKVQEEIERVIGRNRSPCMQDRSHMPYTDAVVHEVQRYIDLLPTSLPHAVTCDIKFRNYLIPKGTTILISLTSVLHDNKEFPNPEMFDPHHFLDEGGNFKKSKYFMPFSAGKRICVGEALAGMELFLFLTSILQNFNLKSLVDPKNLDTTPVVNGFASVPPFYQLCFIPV

[22] = biological target: T4, Cytochrome P450 1A2 (Homo sapiens, UniProt P05177);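 note: PubChem cytochrome P450 panel assay, CYP1A2 panel member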
T4 sequence (P05177 whole entry): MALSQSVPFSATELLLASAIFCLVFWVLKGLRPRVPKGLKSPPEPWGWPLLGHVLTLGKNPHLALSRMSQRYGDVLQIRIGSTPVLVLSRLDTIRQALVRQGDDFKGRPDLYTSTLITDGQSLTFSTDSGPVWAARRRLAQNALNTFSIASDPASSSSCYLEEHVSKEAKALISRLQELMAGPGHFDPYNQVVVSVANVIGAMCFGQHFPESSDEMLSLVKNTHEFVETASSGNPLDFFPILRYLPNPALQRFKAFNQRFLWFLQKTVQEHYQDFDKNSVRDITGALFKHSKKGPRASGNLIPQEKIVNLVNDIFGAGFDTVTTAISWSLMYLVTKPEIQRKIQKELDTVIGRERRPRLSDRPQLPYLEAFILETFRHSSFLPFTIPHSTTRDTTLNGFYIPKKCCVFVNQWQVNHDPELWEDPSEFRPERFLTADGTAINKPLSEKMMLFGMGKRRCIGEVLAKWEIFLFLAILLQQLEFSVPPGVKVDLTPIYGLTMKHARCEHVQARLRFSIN

[23] = biological target: Cytochrome P450 3A4 (Homo sapiens, UniProt P08684);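 note: CYP3A4 tested as one member of a cytochrome P450 panel screen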
Sequence of Cytochrome P450 3A4 (P08684 whole entry): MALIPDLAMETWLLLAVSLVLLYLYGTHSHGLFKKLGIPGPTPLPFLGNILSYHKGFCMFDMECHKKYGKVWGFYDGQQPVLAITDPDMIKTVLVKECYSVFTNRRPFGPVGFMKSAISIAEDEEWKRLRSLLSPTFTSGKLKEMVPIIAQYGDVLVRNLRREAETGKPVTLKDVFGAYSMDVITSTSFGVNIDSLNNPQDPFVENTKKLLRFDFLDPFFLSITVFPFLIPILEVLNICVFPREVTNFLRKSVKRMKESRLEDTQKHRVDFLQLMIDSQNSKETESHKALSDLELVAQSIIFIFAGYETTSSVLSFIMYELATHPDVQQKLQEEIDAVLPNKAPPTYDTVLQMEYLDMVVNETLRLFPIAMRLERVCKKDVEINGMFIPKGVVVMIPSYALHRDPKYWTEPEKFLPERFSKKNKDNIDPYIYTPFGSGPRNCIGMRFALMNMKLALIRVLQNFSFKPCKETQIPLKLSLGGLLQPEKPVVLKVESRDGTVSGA

## COc1ccc(NC(=O)CN2CCN(Cc3ccc4c(c3)OCO4)CC2)cc1OC
[1]
  IC50: > 100 µM (inactive)

## O=C(O)c1ccc(-c2nc(-c3ccc(Cl)cc3)cs2)cc1
[2]
  EC50: 112 µM (active)
[3]
  EC50: 4.58 µM (active)

## Nc1cc(N)nc(SCc2cccc(F)c2)n1
[2]
  EC50: > 150 µM (inactive)
[3]
  EC50: > 38 µM (not active)

## CCn1cc(C(=O)OCC(=O)Nc2cccc(Cl)c2Cl)c(=O)c2ccc(C)nc21
[2]
  EC50: > 150 µM (inactive)
[3]
  EC50: > 38 µM (not active)

## O=C(/C=C/c1ccc2c(c1)OCCCO2)c1ccc2ccccc2c1O
[4]
  CC50: 30.7 µM (active)
[5]
  AC50: 5.21 µM (active)

## Nc1nc(Cl)nc2ccc(Br)cc12
[6]
  IC50: > 20 µM (inactive)
[7]
  EC50: 5.71 µM (active)

## COc1cc(-c2cc(C(=O)Nc3ccc(S(N)(=O)=O)cc3)c3ccccc3n2)cc(OC)c1OC
[6]
  IC50: > 20 µM (inactive)

## CSc1ccc(CCNC(=O)c2nn(C)c3c2CS(=O)(=O)c2ccccc2-3)cc1
[8]
  EC50: > 260 µM (inactive)

## Cc1ccccc1C(=O)OC1OC(O)=C(Cl)/C1=N\c1ccccc1 (centres undefined)
[6]
  IC50: > 20 µM (inactive)

## O=[N+]([O-])C(/C=C(\Cl)[N+](=O)[O-])=C(N1CCCCC1)N1CCCCC1
[9]
  EC50: > 120 µM (not active)
[10]
  EC50: 0.956 µM (active)

## COc1ccc(C2=CC(c3c(C)nn(-c4ccccc4)c3Cl)n3nnnc3N2)cc1OC (centres undefined)
[11]
  CC50: > 40 µM (active)
[4]
  CC50: 24.1 µM (active)

## Clc1ccc(-c2nc(-c3cnccn3)no2)cc1
[1]
  IC50: 74.1 µM (inactive)

## CCOc1ccccc1C(=O)N/N=C/c1ccoc1
[2]
  EC50: 138 µM (active)
[3]
  EC50: 3.33 µM (active)

## Cc1nc(NC(=O)c2c(-c3ccccc3)noc2C)sc1C(=O)N(C)C
[2]
  EC50: > 160 µM (inactive)
[3]
  EC50: > 38 µM (not active)

## Cc1nc(C(F)(F)F)c(C(=O)O)cc1-c1nc(-c2ccccc2)cs1
[12]
  AC50: 11.4 µM (active)

## Clc1ccc(CSc2ncn(-c3ccccc3)n2)cc1
[1]
  IC50: 10.3 µM (active)

## Brc1cccc(OCCSc2ncccn2)c1
[1]
  IC50: 63.6 µM (inactive)

## Fc1ccc2nc(Nc3nc4c(s3)CCCC4)sc2c1
[9]
  EC50: 0.986 µM (active)

## CCC(Sc1nc2nnc(C)c-2c(N)n1-c1ccc(C)c(Cl)c1)C(=O)N1CCOCC1 (centres undefined)
[8]
  EC50: > 260 µM (inactive)

## COc1ccc(-c2cn(-c3ccc(C)cc3)c(=O)n2CC(=O)Nc2ccc(OC)cc2OC)cc1
[1]
  IC50: > 100 µM (inactive)

## Cn1c(-c2ccc(F)cc2)cnc1NCc1cc2c(cc1[N+](=O)[O-])OCO2
[12]
  AC50: 7.43 µM (active)

## CCOC(=O)C1=C(c2ccccc2)NC(=O)NC1c1cc(Br)c(O)c(OC)c1 (centres undefined)
[8]
  EC50: > 260 µM (inactive)

## Cn1c(/C=N/Nc2nc3ccccc3[nH]2)nc2ccccc21
[11]
  CC50: > 40 µM (active)
[2]
  EC50: 35.5 µM (active)
[3]
  EC50: > 38 µM (not active)

## O=C(c1cc(-c2ccccc2)on1)N1CCc2ccccc2C1
[1]
  IC50: > 100 µM (inactive)

## Sc1nnc(C2CCCCC2)n1/N=C/C(Cl)=C\c1ccccc1
[4]
  CC50: 15.2 µM (active)
[5]
  AC50: 5.5 µM (active)

## C#CCOCCOCCOCCNc1nc(N2CCN(C(=O)[C@H](CO)n3cc([C@@H](N)C(C)C)nn3)CC2)nc(N2CCN(C(=O)[C@H](CCCCN)n3cc([C@@H](N)[C@H](C)CC)nn3)CC2)n1
[6]
  IC50: > 20 µM (inactive)

## Cc1ccc2oc(C(=O)N3CCC(O)(c4cccc(C(F)(F)F)c4)CC3)c(C)c2c1
[8]
  EC50: 54.9 µM (active)

## COC(=O)c1ccc(=O)n(Cc2ccco2)c1
[1]
  IC50: > 100 µM (inactive)

## CC(=O)N1CCN(C(=S)c2ccc(N(C)C)cc2)CC1
[12]
  AC50: 1.13 µM (active)

## Clc1ccc(Nc2ccc(-n3ccnc3)nn2)cc1Cl
[1]
  IC50: > 100 µM (inactive)
[11]
  CC50: > 40 µM (active)

## CCn1cc(-c2ccccc2)c(C(=O)O)c1-c1ccc(OC)cc1
[12]
  AC50: 5.6 µM (active)

## CNc1nc(N)c(C(=O)C23CC4CC(CC(C4)C2)C3)s1
[12]
  AC50: 0.437 µM (active)

## O=C1N=C(N/N=C/c2cccnc2)SC1Cc1ccc(SC(F)F)cc1 (centres undefined)
[13]
  EC50: 12.2 µM (active)
[14]
  EC50: 11.9 µM (active)
[15]
  EC50: 8.36 µM (active)
[10]
  EC50: 0.969 µM (active)
[16]
  EC50: 12.3 µM (active)
[2]
  EC50: > 150 µM (inactive)
[17]
  EC50: 3.44 µM (active)
[18]
  AC50: 2.56 µM (active)
[3]
  EC50: 1.87 µM (active)
[19]
  EC50: 3.31 µM (active)

## O=C(NCC(=O)N1CCN(c2ccccc2O)CC1)c1cccs1
[12]
  AC50: 4.14 µM (active)

## Nc1ccc(N2CCN(C(=O)c3ccco3)CC2)cc1
[20]
  AC50: 8.91 µM (inconclusive)
[12]
  AC50: 0.719 µM (active)
[21]
  AC50: 10 µM (inconclusive)

## CC1Cc2ccccc2N1C(=O)C1CCN(S(=O)(=O)Cc2ccccc2)CC1 (centres undefined)
[1]
  IC50: > 100 µM (inactive)

## O=C(O)c1ccc(CSc2nc3ccccc3o2)cc1
[22]
  AC50: 0.0501 µM (inconclusive)
[12]
  AC50: 51.7 µM (active)
[21]
  AC50: 39.8 µM (inconclusive)

## Fc1ccc(-c2nnc(-c3ccc(F)cc3)o2)cc1
[1]
  IC50: > 100 µM (inactive)

## CCC1CCCCN1CCCNC(=O)C1CCN(c2ncnc3c2nc2n3CCCCC2)CC1 (centres undefined)
[6]
  IC50: > 20 µM (inactive)

## COc1ccc(OC)c2c(C)cc(N3CCCN(C)CC3)nc12
[12]
  AC50: 22 µM (active)

## Nc1cc(O)nc(SCC(=O)Nc2ccc(S(=O)(=O)N3CCOCC3)cc2)n1
[23]
  AC50: 28.2 µM (inconclusive)
[1]
  IC50: > 100 µM (inactive)
[21]
  AC50: 20 µM (inconclusive)
